The source made the active and inactive calls. The rule behind the calls is not given here.
What was measured:
PANC-1 [1] = assay: Cytotoxicity against human PANC-1 cells assessed as inhibition of cell growth incubated for 72 hrs by SRB assay; assay type: functional, cell-based; conditions: PANC-1, 72 h
[2] = Cytotoxicity against human MRC5 cells assessed as inhibition of cell growth incubated for 72 hrs by SRB assay; assay type: toxicity, cell-based
[3] = Cytotoxicity against HPDE6c7 cells assessed as inhibition of cell growth incubated for 72 hrs by SRB assay; assay type: toxicity, cell-based; conditions: human
[4] = tested on: Gemcitabine-resistant PANC-1; assay: Cytotoxicity against human Gemcitabine-resistant PANC-1 cells assessed as inhibition of cell growth incubated for 72 hrs by SRB assay; assay type: functional, cell-based; conditions: Gemcitabine-resistant PANC-1, 72 h
[5] = Selectivity ratio of IC50 for cytotoxicity against human Gemcitabine-resistant PANC-1 cells assessed as inhibition of cell growth to IC50 for cytotoxicity against human PANC-1 cells assessed as inhibition of cell growth; assay type: functional
PANC-1 [6] = assay: Antiproliferative activity against human PANC-1 cells transfected with Myc-DDK tagged pCMV6-PKCbeta1 assessed as reduction in cell viability at 1.25 to 40 uM incubated for 72 hrs by MTT assay; assay type: functional, cell-based; conditions: dose 1.25-40 µM
PANC-1 [7] = assay: Antiproliferative activity against human PANC-1 cells transfected with PKCbeta1 siRNA assessed as reduction in cell viability at 1.25 to 40 uM incubated for 72 hrs by MTT assay; assay type: functional, cell-based; conditions: dose 1.25-40 µM
[8] = tested on: Gemcitabine-resistant PANC-1; assay: Antitumor activity against human Gemcitabine-resistant PANC-1 cells xenografted in male BALB/c nude mouse assessed as reduction in tumor growth at 10 mg/kg, ip administered three times in a week for 20 days relative to control; assay type: functional; design: scale not given: the % may be the effect or the level left; conditions: time 20 day
[9] = tested on: Gemcitabine-resistant PANC-1; assay: Antitumor activity against human Gemcitabine-resistant PANC-1 cells xenografted in male BALB/c nude mouse assessed as reduction in tumor growth at 5 mg/kg, ip administered three times in a week for 20 days; assay type: functional, organism-based; conditions: time 20.0 day
[10] = target: T1, Protein kinase C beta type (Homo sapiens, UniProt P05771); assay: Binding affinity to PKCbeta1 in human Gemcitabine-resistant PANC-1 cells at 10 uM incubated for 1 hrs by streptavidin-biotin pull down assay; assay type: cell-based
Target sequence in this assay (P05771 2-671 limits assumed): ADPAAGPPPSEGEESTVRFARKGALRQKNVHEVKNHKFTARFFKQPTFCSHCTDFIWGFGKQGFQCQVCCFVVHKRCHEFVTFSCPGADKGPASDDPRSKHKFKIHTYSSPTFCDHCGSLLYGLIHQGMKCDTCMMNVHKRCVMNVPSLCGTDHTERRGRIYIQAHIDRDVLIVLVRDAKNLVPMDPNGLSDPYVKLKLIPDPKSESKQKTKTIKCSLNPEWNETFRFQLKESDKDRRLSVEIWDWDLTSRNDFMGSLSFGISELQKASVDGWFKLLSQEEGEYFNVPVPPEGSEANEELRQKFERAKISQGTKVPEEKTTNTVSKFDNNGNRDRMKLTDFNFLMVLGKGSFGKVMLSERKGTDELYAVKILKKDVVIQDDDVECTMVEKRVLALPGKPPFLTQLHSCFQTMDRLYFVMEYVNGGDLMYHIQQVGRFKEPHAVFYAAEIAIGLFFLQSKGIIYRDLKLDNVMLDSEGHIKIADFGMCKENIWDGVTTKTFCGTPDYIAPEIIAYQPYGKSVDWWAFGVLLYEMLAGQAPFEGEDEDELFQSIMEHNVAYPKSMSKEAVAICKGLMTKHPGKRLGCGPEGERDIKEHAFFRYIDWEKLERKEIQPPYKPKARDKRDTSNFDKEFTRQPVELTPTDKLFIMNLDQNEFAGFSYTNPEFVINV

[11] = target: T1, Protein kinase C beta type; assay: Inhibition of recombinant full length N-terminal GST-tagged human PKCbeta1 expressed in baculovirus infected Sf9 insect cells using ERMRPRKRQGSVRRRV as substrate incubated for 60 mins in presence of ATP by ADP-glo reagent based luminometric analysis

SMILES | IC50 (PANC-1 [1]) [µM] | IC50 at 72 h [2] [µM] | further results
CC(=O)Oc1ccc2[nH]c3c(c2c1)CCN1C(=O)c2cc(F)ccc2N(C)[C@H]31 | < 0.4 | < 0.4 | –
O=C1c2ccccc2N[C@@H]2c3[nH]c4ccccc4c3CCN12 | > 50 | > 50 | –
Cc1ccc2[nH]c3c(c2c1)CCN1C(=O)c2ccccc2N(C)[C@H]31 | 29.2 | > 50 | –
COc1ccc(Cn2c3c(c4ccccc42)CCN2C(=O)c4ccccc4N(C)[C@H]32)cc1 | 47.2 | > 50 | –
CN1c2ccccc2C(=O)N2CCc3c(n(C)c4ccccc34)[C@H]21 | > 50 | > 50 | –
CCCn1c2c(c3ccccc31)CCN1C(=O)c3ccccc3N(C)[C@H]21 | 38.4 | > 50 | –
Cc1cccc2c1N(C)[C@@H]1c3[nH]c4ccccc4c3CCN1C2=O | < 0.4 | < 0.4 | –
CN1c2ccc(Br)cc2C(=O)N2CCc3c([nH]c4ccccc34)[C@H]21 | 2.25 | 3.06 | –
O=C1c2ccccc2N(C(=O)C2CCCCC2)C2c3[nH]c4ccccc4c3CCN12 (single isomer, unassigned) | > 50 | > 50 | –
COc1cc([C@@H]2c3cc4c(cc3[C@@H](O[C@@H]3O[C@@H]5CO[C@@H](C)O[C@H]5[C@H](O)[C@H]3O)[C@H]3COC(=O)[C@H]23)OCO4)cc(OC)c1O [ETOPOSIDE] | 18.3 | > 20 | –
O=C1c2ccccc2N(Cc2ccccc2)[C@@H]2c3[nH]c4ccccc4c3CCN12 | > 50 | > 50 | –
Cc1ccc(CN2c3ccccc3C(=O)N3CCc4c([nH]c5ccccc45)[C@H]32)cc1 | 11.3 | > 50 | –
CN1c2cc(Cl)ccc2C(=O)N2CCc3c([nH]c4ccccc34)[C@H]21 | > 50 | > 50 | –
CCCN1c2ccccc2C(=O)N2CCc3c([nH]c4ccccc34)[C@H]21 | < 0.4 | < 0.4 | –
COc1ccc2[nH]c3c(c2c1)CCN1C(=O)c2ccccc2N(C)[C@H]31 | 11.1 | 10.8 | –
Nc1ccn([C@@H]2O[C@H](CO)[C@@H](O)C2(F)F)c(=O)n1 [GEMCITABINE] | 1.25 | – | IC50 at 72 h [3]: 0.04 µM; IC50 [4]: 64.5 µM; Ratio IC50 [5]: 51.61; Activity (PANC-1 [6]): inactive; Activity (PANC-1 [7]): Active; Activity [8]: 72.15%; Activity [9]: inactive
CN1c2ccccc2C(=O)N2CCc3c(n(C(=O)c4ccccc4)c4ccccc34)[C@H]21 | > 50 | > 50 | –
CN1c2ccccc2C(=O)N2CCc3c([nH]c4ccc(Cl)cc34)[C@H]21 | 31.6 | 9.42 | –
CC(=O)Oc1ccc2c(c1)c1c(n2Cc2cn(CCNC(=O)CCCC[C@@H]3SC[C@@H]4NC(=O)N[C@@H]43)nn2)C2N(CC1)C(=O)c1ccccc1N2C (some centres not stated) | – | – | Activity [10]: Active
CN1c2ccccc2C(=O)N2CCc3c([nH]c4ccc([N+](=O)[O-])cc34)[C@H]21 | 4.45 | > 50 | –
Cc1ccc2c(c1)C(=O)N1CCc3c([nH]c4ccccc34)[C@H]1N2C | 2.02 | 7.36 | –
CN1c2ccccc2C(=O)N2CCc3c([nH]c4ccc(F)cc34)[C@H]21 | 9.32 | 4.71 | –

SMILES | IC50 (PANC-1 [1]) [µM] | IC50 at 72 h [2] [µM] | further results
CN1c2ccccc2C(=O)N2CCc3c([nH]c4c([N+](=O)[O-])cc([N+](=O)[O-])cc34)[C@H]21 | 0.93 | > 50 | IC50 at 72 h [3]: 0.08 µM; IC50 [4]: 1.31 µM; inhibition [11]: inactive
C=CCOc1ccc2[nH]c3c(c2c1)CCN1C(=O)c2ccccc2N(C)[C@H]31 | 6.7 | > 50 | –
CN1c2ccccc2C(=O)N2CCc3c(n(Cc4ccccc4)c4ccccc34)[C@H]21 | 6.88 | 33.7 | –
CN1c2ccccc2C(=O)N2CCc3c(n(Cc4ccc(Cl)cc4)c4ccccc34)[C@H]21 | 44 | > 50 | –
Cc1ccc(Cn2c3c(c4ccccc42)CCN2C(=O)c4ccccc4N(C)[C@H]32)cc1 | > 50 | > 50 | –
CCCOc1ccc2[nH]c3c(c2c1)CCN1C(=O)c2ccccc2N(C)[C@H]31 | 19 | > 50 | –
CN1c2ccccc2C(=O)N2CCc3c([nH]c4ccccc34)[C@H]21 | 6.59 | > 50 | IC50 [11]: 0.151 µM
COc1ccc2c(c1)N(C)[C@@H]1c3[nH]c4ccccc4c3CCN1C2=O | 31.6 | 3.6 | –
CN1c2ccccc2C(=O)N2CCc3c([nH]c4ccc(OCc5ccccc5)cc34)[C@H]21 | 10.7 | > 50 | –
CCCCCCn1c2c(c3ccccc31)CCN1C(=O)c3ccccc3N(C)[C@H]21 | 13.7 | 37.6 | –
CN1c2ccc(F)cc2C(=O)N2CCc3c([nH]c4ccccc34)[C@H]21 | < 0.4 | < 0.4 | –
CC(=O)Oc1ccc2[nH]c3c(c2c1)CCN1C(=O)c2cccc(C)c2N(C)[C@H]31 | < 0.4 | < 0.4 | –
C#CCOc1ccc2[nH]c3c(c2c1)CCN1C(=O)c2ccccc2N(C)[C@H]31 | 4 | > 50 | –
CN1c2cccc(Cl)c2C(=O)N2CCc3c([nH]c4ccccc34)[C@H]21 | 8.8 | < 0.4 | –
CN1c2ccccc2C(=O)N2CCc3c([nH]c4ccc(OC(=O)c5ccccc5)cc34)[C@H]21 | 0.75 | > 50 | IC50 at 72 h [3]: 0.14 µM; IC50 [4]: 0.13 µM; inhibition [11]: inactive
Cn1cc(C2=C(c3cn(C4CCN(Cc5ccccn5)CC4)c4ccccc34)C(=O)NC2=O)c2ccccc21 [ENZASTAURIN] | 6.59 | – | IC50 at 72 h [3]: 1.33 µM; IC50 [4]: 2.12 µM
CN1c2ccc(Cl)cc2C(=O)N2CCc3c([nH]c4ccccc34)[C@H]21 | 1.32 | 1.03 | –
CN1c2ccccc2C(=O)N2CCc3c([nH]c4ccc(O)cc34)[C@H]21 | ≤ 0.05 | > 50 | IC50 at 72 h [3]: 0.17 µM; IC50 [4]: 0.25 µM; inhibition [11]: inactive
O=C1c2ccccc2N(Cc2ccc(C(F)(F)F)cc2)[C@@H]2c3[nH]c4ccccc4c3CCN12 | 31.5 | 50 | –
COc1ccc2c(c1)C(=O)N1CCc3c([nH]c4ccccc34)[C@H]1N2C | 1.05 | 3.33 | –
COc1cccc2c1C(=O)N1CCc3c([nH]c4ccccc34)[C@H]1N2C | 12.6 | 12.7 | –

Reference: ChEMBL document CHEMBL5584333, “Evo312: An Evodiamine Analog and Novel PKCβI Inhibitor with Potent Antitumor Activity in Gemcitabine-Resistant Pancreatic Cancer” (J Med Chem, 2024)
